Measurements as given in the supplement of paper PMC10307832.

Tests used:
Assay in all cases: relative viability (nuclei count vs DMSO), 5 days (fraction); higher = more cells survive
[1] = compound: C=C(c1ccc(C(=O)O)cc1)c1cc2c(cc1C)C(C)(C)CCC2(C)C [Bexarotene] + CC(C)C[C@H](NC(=O)[C@H](Cc1ccccc1)NC(=O)c1cnccn1)B(O)O [Bortezomib] (partner 0.002 µM)
Method in brief: (§1)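 Nuclei were stained with Hoechst during a one-step fixation (final 0.05% Triton X-100, 1% formaldehyde, 1 ug/ml Hoechst) carried out 5 days after dosing, then counted on 4× images. The cells, lung cancer lines in 1536-well plates, had been dosed by pin tool the day after seeding with one drug alone or a fixed anchor-drug dose plus five library-drug doses (not always all listed) in √10 steps. Relative viability is the nuclei count in treated wells divided by that in vehicle wells, and each value is the median of duplicate plates.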

[2] = compound: C=C(c1ccc(C(=O)O)cc1)c1cc2c(cc1C)C(C)(C)CCC2(C)C [Bexarotene] + CC1(C)CCC(c2ccc(Cl)cc2)=C(CN2CCN(c3ccc(C(=O)NS(=O)(=O)c4ccc(N[C@H](CCN5CCOCC5)CSc5ccccc5)c(S(=O)(=O)C(F)(F)F)c4)cc3)CC2)C1 [Navitoclax] (partner 0.5 µM)
Method in brief: as §1

[3] = compound: C=C(c1ccc(C(=O)O)cc1)c1cc2c(cc1C)C(C)(C)CCC2(C)C [Bexarotene] + Cc1nc(Nc2ncc(C(=O)Nc3c(C)cccc3Cl)s2)cc(N2CCN(CCO)CC2)n1 [Dasatinib] (partner 0.075 µM)
Method in brief: as §1

[4] = compound: C=C(c1ccc(C(=O)O)cc1)c1cc2c(cc1C)C(C)(C)CCC2(C)C [Bexarotene] + CCNC(=O)c1noc(-c2cc(C(C)C)c(O)cc2O)c1-c1ccc(CN2CCOCC2)cc1 [Luminespib] (partner 0.01 µM)
Method in brief: as §1

Cell Line	relative viability ([1]; first compound 0.08 µM)	relative viability ([1]; first compound 0.253 µM)	relative viability ([1]; first compound 0.8 µM)	relative viability ([1]; first compound 2.53 µM)	relative viability ([1]; first compound 8 µM)	relative viability ([2]; first compound 0.08 µM)	relative viability ([2]; first compound 0.253 µM)	relative viability ([2]; first compound 0.8 µM)	relative viability ([2]; first compound 2.53 µM)	relative viability ([2]; first compound 8 µM)	relative viability ([3]; first compound 0.08 µM)	relative viability ([3]; first compound 0.253 µM)	relative viability ([3]; first compound 2.53 µM)	relative viability ([3]; first compound 8 µM)	relative viability ([4]; first compound 0.08 µM)	relative viability ([4]; first compound 0.253 µM)	relative viability ([4]; first compound 2.53 µM)	relative viability ([4]; first compound 8 µM)	relative viability ([3]; first compound 0.8 µM)	relative viability ([4]; first compound 0.8 µM)
NCI-H2347	1.2	0.904	0.818	0.664	0.835	0.971	0.846	0.63	0.793	0.783	0.358	0.323	0.259	0.244	0.507	0.255	0.379	0.22		
NCI-H2405	1.07	0.945	0.836	0.896	0.92	0.999	0.814	0.753	0.926	0.786	0.219	0.247	0.144	0.188	0.775	0.663	0.703	0.625	0.136	0.539
NCI-H3122	1.09	1.05	1.09	1.15	1.13	1.12	1.11	1.1	1.01	1.09	0.755	0.959	0.768	0.701	0.0956	0.0599	0.0982	0.0732	0.729	0.0864
PC-3 [JPC-3]	0.9	0.843	0.68	0.858	0.771	0.86	0.904	0.754	0.797	0.693	0.77	0.928	0.974	0.867	0.645	0.618	0.775	0.616	0.833	0.635
